The record followed here is article PMC11995724, “Antibiotic target discovery by integrated phenotypic and activity-based profiling of electrophilic fragments” (Cell chemical biology, 2025).

SMILES strings stand for the structures. Structures can show the parent of a compound that is named as a salt.

The series can be described thus: in vitro. The settings on record: human, hek293t cells.
Consider `O=C(CCl)NCC1CC(=O)N(c2ccccc2)C1` (centres unmarked) [5-A09, 2-chloro-N-[(5-oxo-1-phenylpyrrolidin-3-yl)methyl]acetamide], for which the viability (as a rule, a read-out of living cells in per cent, often relative to untreated cells) at 48 h, 25 µM turned out to be 0.822%.

Take `C=CC(=O)Nc1ncnc2c1cnn2Cc1cccc(C)c1` [1-M21, N-{1-[(3-methylphenyl)methyl]-1H-pyrazolo[3,4-d]pyrimidin-4-yl}prop-2-enamide]: the viability at 48 h, 25 µM worked out at 100%.

With `CC(=O)c1cccc(NC(=O)C(C)Cl)c1` (centres unmarked) [6-K22, N-(3-acetylphenyl)-2-chloropropanamide], the viability at 48 h, 25 µM came to 105%.

Turning to `N#CC(=Cc1ccc(O)cc1)C(=O)NCc1ccco1` [9-N10, 2-cyano-N-[(furan-2-yl)methyl]-3-(4-hydroxyphenyl)prop-2-enamide], the viability at 48 h, 25 µM was determined as 103%.

With `O=C(CCl)Nc1cc(C2CCCC2)nn1-c1ccccc1` [4-J03, 2-chloro-N-(3-cyclopentyl-1-phenyl-1H-pyrazol-5-yl)acetamide], the viability at 48 h, 25 µM worked out at 0.358%.

As to `O=C(CCl)Nc1ccccc1C(=O)Nc1ccc(F)cc1` [6-D12, 2-(2-chloroacetamido)-N-(4-fluorophenyl)benzamide], the viability at 48 h, 25 µM was determined as 0.805%.

For the molecule `C=CC(=O)N(Cc1cccc2cccnc12)C1CCCN(CC)C1` (centres unmarked) [1-H11, N-(1-ethylpiperidin-3-yl)-N-[(quinolin-8-yl)methyl]prop-2-enamide], the viability at 48 h, 25 µM came out at 55.3%.

As to `COC(=O)C(C(=O)CCl)=C1Nc2ccccc2N1` [10-G12, methyl 4-chloro-2-(2,3-dihydro-1H-1,3-benzodiazol-2-ylidene)-3-oxobutanoate], the viability at 48 h, 25 µM came out at 48.7%.

In the case of `C=CC(=O)N1CCN(Cc2cc(C)no2)CC1` [1-B18, 1-{4-[(3-methyl-1,2-oxazol-5-yl)methyl]piperazin-1-yl}prop-2-en-1-one], the viability at 48 h, 25 µM turned out to be 70.8%.

Take `C=CC(=O)NCCC(=O)NC1CCCCC12OCCO2` (centres unmarked) [2-O08, N-[2-({1,4-dioxaspiro[4.5]decan-6-yl}carbamoyl)ethyl]prop-2-enamide]: the viability at 48 h, 25 µM was 106%.

Take `COc1cc(CNC(=O)C(C#N)=Cc2ccco2)c2ccccc2n1` [9-I05, 2-cyano-3-(furan-2-yl)-N-[(2-methoxyquinolin-4-yl)methyl]prop-2-enamide]: the viability at 48 h, 25 µM was 114%.

For the molecule `CC(C)n1ccnc1C(=O)CCl` [10-H10, 2-chloro-1-[1-(propan-2-yl)-1H-imidazol-2-yl]ethan-1-one], the viability at 48 h, 25 µM is 20.4%.

Regarding `CC(Cl)C(=O)NCc1cccc(Cn2cnc3ccccc32)c1` (centres unmarked) [6-O16, N-({3-[(1H-1,3-benzodiazol-1-yl)methyl]phenyl}methyl)-2-chloropropanamide], the viability at 48 h, 25 µM amounted to 116%.

With `C=CC(=O)N1CC(OCc2ccccc2F)C1` [3-I15, 1-{3-[(2-fluorophenyl)methoxy]azetidin-1-yl}prop-2-en-1-one], the viability at 48 h, 25 µM amounted to 40.4%.

As to `CC(=O)N(C)c1cccc(NC(=O)C(C#N)=Cc2ccco2)c1` [9-L18, 2-cyano-3-(furan-2-yl)-N-[3-(N-methylacetamido)phenyl]prop-2-enamide], the viability at 48 h, 25 µM was found to be 104%.

Turning to `CC(=O)NCCc1ccc(C(=O)CCl)cc1` [10-N03, N-{2-[4-(2-chloroacetyl)phenyl]ethyl}acetamide], the viability at 48 h, 25 µM came to 85.6%.

Turning to `CC(NC(=O)CCl)C(=O)Nc1ccc(Cl)cc1` (centres unmarked) [5-G11, 2-(2-chloroacetamido)-N-(4-chlorophenyl)propanamide], the viability at 48 h, 25 µM amounted to 1.06%.

`C=CC(=O)N(CC)c1cccc(C)c1` [1-A10, N-ethyl-N-(3-methylphenyl)prop-2-enamide]: the viability at 48 h, 25 µM turned out to be 76.6%.

Regarding `CCn1nc(C)c(C=C(C#N)C(=O)Nc2ccccc2Cl)c1C` [9-F07, N-(2-chlorophenyl)-2-cyano-3-(1-ethyl-3,5-dimethyl-1H-pyrazol-4-yl)prop-2-enamide], the viability at 48 h, 25 µM was found to be 110%.

In the case of `Cc1ccc(C=C(C#N)C(=O)NC2CCCC2)cc1C` [8-E12, 2-cyano-N-cyclopentyl-3-(3,4-dimethylphenyl)prop-2-enamide], the viability at 48 h, 25 µM was 54.9%.

For the molecule `Cc1ccc(NC(=O)C2(CNC(=O)C(C)Cl)CCCC2)cc1C` (centres unmarked) [7-J13, 1-[(2-chloropropanamido)methyl]-N-(3,4-dimethylphenyl)cyclopentane-1-carboxamide], the viability at 48 h, 25 µM came out at 108%.

Consider `C=CC(=O)N1CCC(CCO)c2ccccc21` (centres unmarked) [3-O03, 1-[4-(2-hydroxyethyl)-1,2,3,4-tetrahydroquinolin-1-yl]prop-2-en-1-one], for which the viability at 48 h, 25 µM was 58.4%.

In the case of `O=C(CN1CCN(C(=O)CCl)CC1)Nc1ccc(F)cc1` [4-J20, 2-[4-(2-chloroacetyl)piperazin-1-yl]-N-(4-fluorophenyl)acetamide hydrochloride], the viability at 48 h, 25 µM was determined as 1.34%.

Consider `C=CC(=O)N(Cc1cc(-c2ccco2)n(C)n1)C1CCCCC1` [1-J15, N-cyclohexyl-N-{[5-(furan-2-yl)-1-methyl-1H-pyrazol-3-yl]methyl}prop-2-enamide], for which the viability at 48 h, 25 µM was 83.8%.

For `COc1cc(Cl)ccc1CNC(=O)C(C#N)=Cc1ccco1` [9-E18, N-[(4-chloro-2-methoxyphenyl)methyl]-2-cyano-3-(furan-2-yl)prop-2-enamide], the viability at 48 h, 25 µM is 109%.

With `COc1ccc2ccccc2c1C=C(C#N)C(=O)N1CCCC1` [8-P12, 3-(2-methoxynaphthalen-1-yl)-2-(pyrrolidine-1-carbonyl)prop-2-enenitrile], the viability at 48 h, 25 µM was determined as 75.4%.

Consider `C=CC(=O)N1CCN(Cc2ccon2)CC1` [1-N20, 1-{4-[(1,2-oxazol-3-yl)methyl]piperazin-1-yl}prop-2-en-1-one], for which the viability at 48 h, 25 µM was determined as 79.6%.

In the case of `C=CC(=O)Nc1onc(C2CCCCC2)c1CC(C)C` [1-P12, N-[3-cyclohexyl-4-(2-methylpropyl)-1,2-oxazol-5-yl]prop-2-enamide], the viability at 48 h, 25 µM was 0.308%.

Regarding `Cc1ccc(C2OCCCC2CNC(=O)C(C)Cl)cc1` (centres unmarked) [7-B09, 2-chloro-N-{[2-(4-methylphenyl)oxan-3-yl]methyl}propanamide], the viability at 48 h, 25 µM was determined as 91.9%.

Regarding `COc1ccc(N(CC(F)(F)F)C(=O)CCl)cc1` [4-C15, 2-chloro-N-(4-methoxyphenyl)-N-(2,2,2-trifluoroethyl)acetamide], the viability at 48 h, 25 µM is 0.659%.

Take `O=C(CCl)NCCc1cccc2ccccc12` [6-E14, 2-chloro-N-[2-(naphthalen-1-yl)ethyl]acetamide]: the viability at 48 h, 25 µM came out at 4.85%.

With `CC(Cl)C(=O)N1CCCN(C)c2cc(F)ccc21` (centres unmarked) [6-N16, 2-chloro-1-(7-fluoro-5-methyl-2,3,4,5-tetrahydro-1H-1,5-benzodiazepin-1-yl)propan-1-one], the viability at 48 h, 25 µM turned out to be 101%.

In the case of `C=CC(=O)N1CCCC(Cc2noc(C)n2)C1` (centres unmarked) [1-L20, 1-{3-[(5-methyl-1,2,4-oxadiazol-3-yl)methyl]piperidin-1-yl}prop-2-en-1-one], the viability at 48 h, 25 µM was 72.5%.

`Cc1cc(C(=O)O)ccc1N1C(=O)C=CC1=O` [10-G22, 4-(2,5-dioxo-2,5-dihydro-1H-pyrrol-1-yl)-3-methylbenzoic acid]: the viability at 48 h, 25 µM was found to be 107%.

On to `O=C(CCl)NCC1(c2ccccc2)CC1` [5-E15, 2-chloro-N-[(1-phenylcyclopropyl)methyl]acetamide], for which the viability at 48 h, 25 µM came out at 3.61%.

As for `CCOC(=O)c1c(C)[nH]c(C(=O)CCl)c1C` [10-J20, ethyl 5-(2-chloroacetyl)-2,4-dimethyl-1H-pyrrole-3-carboxylate], the viability at 48 h, 25 µM was determined as 1.66%.

Consider `CC(=O)c1cccc(S(=O)(=O)N2CCN(C(=O)CCl)CC2)c1` [4-F05, 1-[4-(3-acetylbenzenesulfonyl)piperazin-1-yl]-2-chloroethan-1-one], for which the viability at 48 h, 25 µM was determined as 0.228%.

Turning to `Cc1ccsc1C=C(C#N)C(=O)NC1CCCCC1C` (centres unmarked) [8-G07, 2-cyano-N-(2-methylcyclohexyl)-3-(3-methylthiophen-2-yl)prop-2-enamide], the viability at 48 h, 25 µM was 61.1%.

In the case of `CN(C)c1ccc(C=C(C#N)C(=O)Nc2nccs2)cc1` [8-E06, 2-cyano-3-[4-(dimethylamino)phenyl]-N-(1,3-thiazol-2-yl)prop-2-enamide], the viability at 48 h, 25 µM is 75.1%.

As for `COc1ccc(N(C)C(=O)C(C)Cl)cc1Cl` (centres unmarked) [7-C14, 2-chloro-N-(3-chloro-4-methoxyphenyl)-N-methylpropanamide], the viability at 48 h, 25 µM was determined as 80.4%.

With `C=CC(=O)N1CCC(C(=O)NCc2nnc(C(C)C)n2C)CC1` [3-C16, N-{[4-methyl-5-(propan-2-yl)-4H-1,2,4-triazol-3-yl]methyl}-1-(prop-2-enoyl)piperidine-4-carboxamide], the viability at 48 h, 25 µM came out at 78.5%.

On to `C=CC(=O)N1CCC(c2nc(C(=O)O)cs2)CC1` [1-O21, 2-[1-(prop-2-enoyl)piperidin-4-yl]-1,3-thiazole-4-carboxylic acid], for which the viability at 48 h, 25 µM turned out to be 96.9%.

Regarding `C=CC(=O)NCc1ccnn1C1CCCC1` [3-H21, N-[(1-cyclopentyl-1H-pyrazol-5-yl)methyl]prop-2-enamide], the viability at 48 h, 25 µM was 74.5%.

Consider `O=C(CCl)Nc1nccc(Cl)n1` [6-C19, 2-chloro-N-(4-chloropyrimidin-2-yl)acetamide], for which the viability at 48 h, 25 µM was 100%.

Consider `CCN(C(=O)CCl)c1ccccc1` [6-E15, 2-chloro-N-ethyl-N-phenylacetamide], for which the viability at 48 h, 25 µM was found to be 1.62%.

On to `N#CC(=Cc1ccc(Cl)cc1)C(N)=O` [8-L21, 3-(4-chlorophenyl)-2-cyanoprop-2-enamide], for which the viability at 48 h, 25 µM amounted to 112%.

Consider `C=CC(=O)NCCCn1cnc2ccccc21` [2-P11, N-[3-(1H-1,3-benzodiazol-1-yl)propyl]prop-2-enamide], for which the viability at 48 h, 25 µM amounted to 62%.

Consider `CCCCNC(=O)C(C#N)=Cc1ccc2c(c1)OCCO2` [9-G11, N-butyl-2-cyano-3-(2,3-dihydro-1,4-benzodioxin-6-yl)prop-2-enamide], for which the viability at 48 h, 25 µM came to 106%.

As to `O=C(CCl)N(CC=Cc1ccccc1)c1ccc2c(c1)OCCO2` [4-G19, 2-chloro-N-(2,3-dihydro-1,4-benzodioxin-6-yl)-N-(3-phenylprop-2-en-1-yl)acetamide], the viability at 48 h, 25 µM is 0.292%.

For `CC(Cl)C(=O)Nc1ccccc1C(=O)c1ccccc1` (centres unmarked) [6-G10, N-(2-benzoylphenyl)-2-chloropropanamide], the viability at 48 h, 25 µM is 102%.
